Assay results published in PubChem BioAssay AID493086 (The Scripps Research Institute Molecular Screening Center, 2011).
Activity calls are given as the source filed them.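 How the source made its calls: active means IC50 at or below 10 µM; inactive means IC50 above 10 µM.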

Molecular target: Induced myeloid leukemia cell differentiation protein Mcl-1 (Homo sapiens) (UniProt Q07820)
Assay: blockers of MCL1–BIM BH3 interaction – biochemical, fluorescence polarization, assay provider data, powder samples, late-stage follow-up (AID 493086)
Conditions: GST-MCL1 / FITC-BIM-BH3 fluorescence polarization

Sequence of Induced myeloid leukemia cell differentiation protein Mcl-1 (Homo sapiens) (Q07820 whole entry, looked up): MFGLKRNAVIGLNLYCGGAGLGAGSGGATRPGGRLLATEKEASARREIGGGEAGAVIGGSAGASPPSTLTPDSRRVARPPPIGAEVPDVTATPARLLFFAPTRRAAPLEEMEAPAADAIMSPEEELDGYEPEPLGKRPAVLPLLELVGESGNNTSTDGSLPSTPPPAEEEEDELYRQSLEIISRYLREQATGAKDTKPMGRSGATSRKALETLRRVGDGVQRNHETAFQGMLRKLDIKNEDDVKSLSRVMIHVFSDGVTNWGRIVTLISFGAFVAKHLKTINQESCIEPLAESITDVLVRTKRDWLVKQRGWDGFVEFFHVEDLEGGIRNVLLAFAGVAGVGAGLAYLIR

| Compound | IC50 |
| --- | --- |
| COc1ccc(Cc2nnc(NC(=O)Cc3cccnc3)s2)cc1OC | > 20 µM (inactive) |
| COc1ccc(NC(=O)c2cc(-c3ccc(C)o3)nc3ccccc23)c(OC)c1 | > 20 µM (inactive) |
| O=C(Nc1nccs1)c1cc(-c2ccco2)nc2ccccc12 | inactive |
| O=C(NC1CC1)c1cc(-c2ccco2)nc2ccccc12 | 4.4 µM |
| CC(C)CCNC(=O)c1cc(-c2ccco2)nc2ccccc12 | > 20 µM (inactive) |
| COc1ccc(CC(=O)Nc2nnc(Cc3ccc(OC)c(OC)c3)s2)cc1 | > 20 µM (inactive) |
| CCOC(=O)c1cc(-c2ccco2)nc2c1c(C)nn2-c1cccc(Cl)c1 | > 20 µM (inactive) |
| CCCCn1c(N)c(N(CCC(C)C)C(=O)c2cc(-c3ccco3)nc3ccccc23)c(=O)[nH]c1=O | > 20 µM (inactive) |
| Cc1nnc(NC(=O)c2cc(-c3ccco3)nc3ccccc23)s1 | inactive |
| CCc1nnc(NC(=O)c2cc(-c3ccc(C)o3)nc3ccccc23)s1 | > 20 µM (inactive) |
| COc1ccc(Cc2nnc(NC(=O)Cc3ccncc3)s2)cc1OC | > 20 µM (inactive) |
| O=C(Nc1cccc(F)c1)c1cc(-c2ccco2)nc2ccccc12 | > 20 µM (inactive) |
| COc1ccc(Cc2nnc(NC(=O)Cc3ccsc3)s2)cc1OC | > 20 µM (inactive) |
| COc1ccc(Cc2nnc(NC(=O)Cc3ccc(C)cc3)s2)cc1OC | > 20 µM (inactive) |
| CCc1nnc(NC(=O)c2cc(-c3ccco3)nc3ccccc23)s1 | inactive |
| CCC(=O)Nc1nnc(Cc2ccccc2)s1 | > 20 µM (inactive) |
| CCCN(C(=O)c1cc(-c2ccco2)nc2ccccc12)c1c(N)n(Cc2ccccc2)c(=O)[nH]c1=O | inactive |
| CN(CCOc1ccc(Cl)cc1)C(=O)c1cc(-c2ccco2)nc2ccccc12 | > 20 µM (inactive) |
| O=C(c1cc(-c2ccco2)nc2ccccc12)N1CCN(c2ccc(F)cc2)CC1 | > 20 µM (inactive) |
| CCCCn1c(N)c(N(CC(C)C)C(=O)c2cc(-c3ccco3)nc3ccccc23)c(=O)[nH]c1=O | > 20 µM (inactive) |
| COc1ccc(Cc2nnc(NC(=O)C(=O)c3ccco3)s2)cc1OC | > 20 µM (inactive) |
| Cc1ccc(NC(=O)c2cc(-c3ccco3)nc3ccccc23)cc1S(=O)(=O)N1CCOCC1 | inactive |
| Cc1ccc(-c2cc(C(=O)N(C)CC(=O)Nc3ccccc3Br)c3ccccc3n2)o1 | > 20 µM (inactive) |
| CCCn1c(N)c(N(CCOC)C(=O)c2cc(-c3ccco3)nc3ccccc23)c(=O)[nH]c1=O | > 20 µM (inactive) |

| Compound | IC50 |
| --- | --- |
| Cc1ccc(-c2cc(C(=O)Nc3ccccc3C)c3ccccc3n2)o1 | > 20 µM (inactive) |
| COc1ccc(Cc2nnc(NC(=O)Cc3ccc(Oc4ccccc4)cc3)s2)cc1OC | > 20 µM (inactive) |
| O=C(Nc1ccccc1F)c1cc(-c2ccco2)nc2ccccc12 | inactive |
| NS(=O)(=O)c1ccc(CCNC(=O)c2cc(-c3ccco3)nc3ccccc23)cc1 | > 20 µM (inactive) |
| O=C(NC(=S)Nc1cccc(S(=O)(=O)NC2=NCCC2)c1)c1cc(-c2ccco2)nc2ccccc12 | > 20 µM (inactive) |
| O=C(Nc1cccc(S(=O)(=O)NC2=NCCCCC2)c1)c1cc(-c2ccco2)nc2ccccc12 | > 20 µM (inactive) |
| CN(CCOc1ccccc1)C(=O)c1cc(-c2ccco2)nc2ccccc12 | > 20 µM (inactive) |
| Cc1ccc(-c2cc(C(=O)N3CCN(c4ncccn4)CC3)c3cc(Br)ccc3n2)o1 | inactive |
| Cc1ccc(-c2cc(C(=O)Nc3cccc(S(=O)(=O)N(C)C)c3)c3ccccc3n2)o1 | > 20 µM (inactive) |
| Cc1ccc(NC(=O)c2cc(-c3ccc(C)o3)nc3ccccc23)nc1 | inactive |
| Cc1ccc(-c2cc(C(=O)NCCN3CCOCC3)c3ccccc3n2)o1 | > 20 µM (inactive) |
| O=C(NC1CCC(O)CC1)c1cc(-c2ccco2)nc2ccccc12 (stereo not given) | inactive |
| COCCN(C(=O)c1cc(-c2ccco2)nc2ccccc12)c1c(N)n(Cc2ccccc2)c(=O)[nH]c1=O | 3.4 µM |
| O=C(Nc1ccc(F)cc1F)c1cc(-c2ccco2)nc2ccccc12 | > 20 µM (inactive) |
| COc1ccc(Cc2nnc(NC(=O)Cc3ccc4ccccc4c3)s2)cc1OC | > 20 µM (inactive) |
| Cc1ccc(-c2cc(C(=O)N3CCCC(C(F)(F)F)C3)c3ccccc3n2)o1 (stereo not given) | > 20 µM (inactive) |
| CCOC(=O)C1CCCN(C(=O)c2cc(-c3ccco3)nc3ccccc23)C1 (stereo not given) | 5.5 µM |
| CCCCn1c(N)c(N(CCOC)C(=O)c2cc(-c3ccco3)nc3ccccc23)c(=O)[nH]c1=O | > 20 µM (inactive) |
| CN(CC(=O)Nc1ccc(F)cc1)C(=O)c1cc(-c2ccco2)nc2ccccc12 | > 20 µM (inactive) |
| COC(=O)C1CCN(C(=O)c2cc(-c3ccco3)nc3ccccc23)CC1 | 7.3 µM |
| COc1cccc(NC(=O)c2cc(-c3ccco3)nc3ccccc23)c1 | > 20 µM (inactive) |
| COc1ccc(Cc2nnc(NC(=O)CCc3cccs3)s2)cc1OC | > 20 µM (inactive) |
| COc1ccccc1NC(=O)c1cc(-c2ccc(C)o2)nc2ccccc12 | > 20 µM (inactive) |
| O=C(Nc1ccccc1N1CCOCC1)c1cc(-c2ccco2)nc2ccccc12 | inactive |

| Compound | IC50 |
| --- | --- |
| Cc1ccc(NC(=O)c2cc(-c3ccc(C)o3)nc3ccccc23)cc1 | > 20 µM (inactive) |
| COc1ccc(Cc2nnc(NC(=O)Cc3ccccn3)s2)cc1OC | > 20 µM (inactive) |
| CC(=O)N1CCN(C(=O)c2cc(-c3ccc(C)o3)nc3ccccc23)CC1 | > 20 µM (inactive) |
| Cc1ccc(-c2cc(C(=O)Nc3ccccc3C(N)=O)c3ccccc3n2)o1 | > 20 µM (inactive) |
| Cc1cccc(NC(=O)c2cc(-c3ccco3)nc3ccccc23)n1 | inactive |
| COc1ccc(Cc2nnc(NC(=O)Cc3cccs3)s2)cc1 | > 20 µM (inactive) |
| Cc1ccc(-c2cc(C(=O)Nc3cccnc3)c3ccccc3n2)o1 | inactive |
| COc1ccc(Cc2nnc(NC(=O)Cc3ccccc3C)s2)cc1OC | > 20 µM (inactive) |
| COc1ccc(Cc2nnc(NC(=O)Cc3c[nH]c4ccccc34)s2)cc1OC | > 20 µM (inactive) |
| Cc1ccc(-c2cc(C(=O)N3CCN(c4ccc(F)cc4)CC3)c3ccccc3n2)o1 | > 20 µM (inactive) |
| COc1ccc(NC(=O)CN(C)C(=O)c2cc(-c3ccc(C)o3)nc3ccccc23)cc1 | > 20 µM (inactive) |
| COCCCN(C(=O)c1cc(-c2ccco2)nc2ccccc12)c1c(N)n(Cc2ccccc2)c(=O)[nH]c1=O | > 20 µM (inactive) |
| CCOC(=O)c1cc(-c2ccco2)nc2c1c(C)nn2-c1ccccc1 | > 20 µM (inactive) |
| O=C(NCC1CCCO1)c1cc(-c2ccco2)nc2ccccc12 (stereo not given) | inactive |
| CCCC(=O)Nc1nnc(Cc2ccccc2)s1 | > 20 µM (inactive) |
| Cc1ccc(S(=O)(=O)N(C)C)cc1NC(=O)c1cc(-c2ccco2)nc2ccccc12 | > 20 µM (inactive) |
| COc1cccc(CC(=O)Nc2nnc(Cc3ccc(OC)c(OC)c3)s2)c1 | > 20 µM (inactive) |
| CCCCN(C(=O)c1cc(-c2ccco2)nc2ccccc12)c1c(N)n(CCCC)c(=O)[nH]c1=O | > 20 µM (inactive) |
| O=C(Nc1nc2ccccc2s1)c1cc(-c2ccco2)nc2ccccc12 | > 20 µM (inactive) |
| Cc1ccc(-c2cc(C(=O)N3CC(C)CC(C)C3)c3ccccc3n2)o1 (stereo not given) | > 20 µM (inactive) |
| O=C(Nc1nncs1)c1cc(-c2ccco2)nc2ccccc12 | inactive |
| O=C(CCn1nnc2ccccc21)Nc1nnc(Cc2ccc(F)cc2)s1 | > 20 µM (inactive) |
| CCCCN(C(=O)c1cc(-c2ccco2)nc2ccccc12)c1c(N)n(CCC)c(=O)[nH]c1=O | > 20 µM (inactive) |
| COc1cccc(NC(=O)c2cc(-c3ccc(C)o3)nc3ccccc23)c1 | > 20 µM (inactive) |

| Compound | IC50 |
| --- | --- |
| COc1ccc(NC(=O)c2cc(-c3ccco3)nc3ccccc23)cc1S(=O)(=O)N1CCOCC1 | inactive |
| O=C(c1cc(-c2ccco2)nc2ccccc12)N1CCN(Cc2ccccc2)CC1 | > 20 µM (inactive) |
| COc1ccc(NC(=O)c2cc(-c3ccco3)nc3ccccc23)cc1 | > 20 µM (inactive) |
| O=C(Nc1cccc(S(=O)(=O)NC2=NCCC2)c1)c1cc(-c2ccco2)nc2ccccc12 | inactive |
| Cc1ccc(-c2cc(C(=O)N3CC(C)OC(C)C3)c3ccccc3n2)o1 (stereo not given) | > 20 µM (inactive) |
| Cc1ccc(-c2cc(C(=O)Nc3nccs3)c3ccccc3n2)o1 | > 20 µM (inactive) |
| CN(C)C(CNC(=O)c1cc(-c2ccco2)nc2ccccc12)c1ccccc1 (stereo not given) | > 20 µM (inactive) |
| Cc1ccc(-c2cc(C(=O)Nc3ccccn3)c3ccccc3n2)o1 | inactive |
| O=C(NCCCN1CCOCC1)c1cc(-c2ccco2)nc2ccccc12 | > 20 µM (inactive) |
| Cc1csc(NC(=O)c2cc(-c3ccco3)nc3ccccc23)n1 | inactive |
| Cc1ccc(-c2cc(C(=O)N3CCN(c4ccccc4O)CC3)c3ccccc3n2)o1 | > 20 µM (inactive) |
| COc1ccc(CCNC(=O)c2cc(-c3ccco3)nc3ccccc23)cc1 | > 20 µM (inactive) |
| COc1cccc(NC(=O)CN(C)C(=O)c2cc(-c3ccco3)nc3ccccc23)c1 | > 20 µM (inactive) |
| COc1ccc(NC(=O)c2cc(-c3ccc(C)o3)nc3ccccc23)cc1OC | > 20 µM (inactive) |
| COc1ccc(NC(=O)c2cc(-c3ccc(C)o3)nc3ccccc23)cc1 | > 20 µM (inactive) |
| CCN(CC)CCNC(=O)c1cc(-c2ccco2)nc2ccccc12 | > 20 µM (inactive) |
| CCOc1cc(N2CCOCC2)c(OCC)cc1NC(=O)c1cc(-c2ccco2)nc2ccccc12 | > 20 µM (inactive) |
| CCCCCCNC(=O)c1cc(-c2ccco2)nc2ccccc12 | > 20 µM (inactive) |
| CCN1CCN(C(=O)c2cc(-c3ccco3)nc3ccccc23)CC1 | 6.7 µM |
| Cc1ccc(-c2cc(C(=O)N3CCOCC3)c3ccccc3n2)o1 | > 20 µM (inactive) |
| COc1ccc(Cc2nnc(NC(=O)Cc3ccc4c(c3)OCO4)s2)cc1OC | > 20 µM (inactive) |
| COc1ccc(Cc2nnc(NC(=O)Cc3csc4ccccc34)s2)cc1OC | > 20 µM (inactive) |
| COc1ccc(Cc2nnc(NC(=O)C(F)c3ccccc3)s2)cc1OC (stereo not given) | > 20 µM (inactive) |
